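Five compound concentrations were applied to cells in 96-well plates for 48 hours; endpoints were derived by simple linear interpolation of the resulting dose-response curve. GI50 marks 50% less growth. The concentration for full growth arrest is given as TGI.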
What was measured:
Experiment in all cases: DTP human tumour cell line panel, 48 h
[1] = system: SNB-19 CNS
[2] = system: ACHN renal
[3] = system: MOLT-4 leukemia
[4] = system: HCT-116 colon
[5] = system: RXF 393 renal
[6] = system: CCRF-CEM leukemia
[7] = system: 786-0 renal
[8] = system: A549 NSCLC
[9] = system: EKVX NSCLC
[10] = system: SF-268 CNS
[11] = system: M14 melanoma
[12] = system: PC-3 prostate
[13] = system: UACC-257 melanoma
[14] = system: OVCAR-4 ovarian
[15] = system: OVCAR-8 ovarian
[16] = system: NCI-H23 lung
[17] = system: LOX IMVI melanoma
[18] = system: HCC-2998 colon
[19] = system: CAKI-1 renal
[20] = system: UACC-62 melanoma
[21] = system: HS 578T breast
[22] = system: MALME-3M melanoma
[23] = system: SK-MEL-28 melanoma
[24] = system: SN12C renal
[25] = system: SF-539 CNS
[26] = system: KM12 colon
[27] = system: T-47D breast
[28] = system: HOP-92 NSCLC
[29] = system: UO-31 renal
[30] = system: RPMI-8226 leukemia
[31] = system: NCI/ADR-RES ovarian
[32] = system: NCI-H460 lung
[33] = system: SK-OV-3 ovarian
[34] = system: DU-145 prostate
[35] = system: SK-MEL-5 melanoma
[36] = system: IGROV1 ovarian
[37] = system: SF-295 CNS
[38] = system: MCF7 breast
[39] = system: OVCAR-3 ovarian
[40] = system: SW-620 colon
[41] = system: A498 renal
[42] = system: SR leukemia
[43] = system: BT-549 breast
[44] = system: COLO 205 colon
[45] = system: OVCAR-5 ovarian
[46] = system: NCI-H226 lung
[47] = system: U251 CNS
[48] = system: HT29 colon
[49] = system: HCT-15 colon
[50] = system: MDA-MB-231 breast
[51] = system: TK-10 renal
[52] = system: SNB-75 CNS
[53] = system: HL-60(TB) leukemia
[54] = system: HOP-62 NSCLC
[55] = system: MDA-MB-435

COc1ccc(C(=O)N2N=C(c3ccc(Br)cc3)CC2c2cn(-c3ccccc3)nc2-c2ccccc2)cc1 (stereo not given)
GI50 [1]: 20.4 µM | TGI [1]: > 50 µM | GI50 [2]: 18.9 µM | TGI [2]: > 50 µM | GI50 [3]: 11.4 µM | TGI [3]: 25.3 µM | GI50 [4]: 2.87 µM | TGI [4]: > 50 µM | GI50 [5]: 6.28 µM | TGI [5]: > 50 µM | GI50 [6]: 9.86 µM | TGI [6]: 29.7 µM | GI50 [7]: 19 µM | TGI [7]: > 50 µM | GI50 [8]: 4.28 µM | TGI [8]: > 50 µM | GI50 [9]: > 50 µM | TGI [9]: > 50 µM | GI50 [10]: 34.8 µM | TGI [10]: > 50 µM | GI50 [11]: 15.7 µM | TGI [11]: > 50 µM | GI50 [12]: > 50 µM | TGI [12]: > 50 µM | GI50 [13]: > 50 µM | TGI [13]: > 50 µM | GI50 [14]: 15.2 µM | TGI [14]: > 50 µM | GI50 [15]: 8.55 µM | TGI [15]: > 50 µM | GI50 [16]: 20.8 µM | TGI [16]: > 50 µM | GI50 [17]: 42.1 µM | TGI [17]: > 50 µM | GI50 [18]: > 50 µM | TGI [18]: > 50 µM | GI50 [19]: 41.7 µM | TGI [19]: > 50 µM | GI50 [20]: 42.8 µM | TGI [20]: > 50 µM | GI50 [21]: 20.5 µM | TGI [21]: > 50 µM | GI50 [22]: > 50 µM | TGI [22]: > 50 µM | GI50 [23]: > 50 µM | TGI [23]: > 50 µM | GI50 [24]: 47.4 µM | TGI [24]: > 50 µM | GI50 [25]: 39.5 µM | TGI [25]: > 50 µM | GI50 [26]: > 50 µM | TGI [26]: > 50 µM | GI50 [27]: 13.4 µM | TGI [27]: > 50 µM | GI50 [28]: 1.79 µM | TGI [28]: 15.8 µM | GI50 [29]: 42.6 µM | TGI [29]: > 50 µM | GI50 [30]: > 50 µM | TGI [30]: > 50 µM | GI50 [31]: 33 µM | TGI [31]: > 50 µM | GI50 [32]: 15.3 µM | TGI [32]: > 50 µM | GI50 [33]: 12.1 µM | TGI [33]: 36.3 µM | GI50 [34]: 25 µM | TGI [34]: > 50 µM | GI50 [35]: 15 µM | TGI [35]: > 50 µM | GI50 [36]: 19.4 µM | TGI [36]: > 50 µM | GI50 [37]: 17 µM | TGI [37]: > 50 µM | GI50 [38]: > 50 µM | TGI [38]: > 50 µM | GI50 [39]: 23.9 µM | TGI [39]: > 50 µM | GI50 [40]: > 50 µM | TGI [40]: > 50 µM | GI50 [41]: 6.82 µM | TGI [41]: 28.5 µM | GI50 [42]: 7.78 µM | TGI [42]: 16.2 µM | GI50 [43]: 30.6 µM | TGI [43]: > 50 µM | GI50 [44]: > 50 µM | TGI [44]: > 50 µM | GI50 [45]: > 50 µM | TGI [45]: > 50 µM | GI50 [46]: 18.3 µM | TGI [46]: > 50 µM | GI50 [47]: 13 µM | TGI [47]: > 50 µM | GI50 [48]: > 50 µM | TGI [48]: > 50 µM | GI50 [49]: > 50 µM | TGI [49]: > 50 µM | GI50 [50]: 5.47 µM | TGI [50]: > 50 µM | GI50 [51]: 20.6 µM | TGI [51]: > 50 µM | GI50 [52]: 30.3 µM | TGI [52]: > 50 µM | GI50 [53]: 30.5 µM | TGI [53]: > 50 µM | GI50 [54]: 9.05 µM | TGI [54]: 44.5 µM | GI50 [55]: > 50 µM | TGI [55]: > 50 µM
